Measurements: patent US10766914B2, “DNA alkylating agents” (OBI PHARMA, INC., priority 2015, dated 2020)

Assays:
[1] = test system: H460 cells; assay: Proliferation assay in H460 cells (2 hr exposure, AlamarBlue); type: cell-based, human; conditions: Homo sapiens, NCI-H460, 2 hrs exposure, wash, 70 hrs growth, read-out: IC 50 in proliferation assay in H460 cells
How it was run: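 H460 cells seeded at 4×10^3/well, grown 24 h, then exposed to compound for 2 h at 37 °C. Drug was washed off and cells were regrown 70 h in fresh medium. Viable cells were read by AlamarBlue, and IC50 was taken as the concentration giving 50% growth inhibition.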

[2] = test system: A375 melanoma human tumor xenograft; assay: Example 4-C antitumor efficacy, ectopic A375 melanoma xenograft model; type: in vivo, female nude mice (nu/nu); conditions: qd × 5 × 2, ip; for inhibition in vivo at 10 mg/kg: A-375, 10 mpk
From the text: (§1) Specific pathogen-free homozygous female nude mice (nu/nu, Charles River Laboratories) were used. Mice were given food and water ad libitum and housed in microisolator cages. Four to six week old animals were identified by microchips (Locus Technology, Manchester, Md., USA) at the time of the experiments. All animal studies were approved by the Institutional Animal Care and Use Committee at Threshold Pharmaceuticals, Inc.
(§2) All cell lines were from the American Type Culture Collection (ATCC, Rockville, Md., USA).
(§3) Cells were mixed with Matrigel (50% with exception for 30% in the H460) and 0.2 ml per mouse were subcutaneously implanted to the flank area of the animals. When tumor size reached 100-150 250 mm3, mice were randomized into experimental or vehicle groups with 10 mice/group and treatment was started (Day 1). The tested compounds were formulated in 5% DMSO in D5W. The regimens employed in the examples include IP, QD×5/wk (5 days on, 2 days off) as one cycle, for a total of 2 cycles; IP, once; IP, weekly for total 3 weeks; and IV, weekly for 3 weeks. Tumor growth and body weight were measured twice a week. Tumor volume was calculated as (length×width2)/2. Drug efficacy was assessed as Tumor Growth Inhibition (TGI) and Tumor Growth Delay (TGD). TGI was defined as (1−ΔT/ΔC)×100, where ΔT/ΔC presented the ratio of the change in mean (or median, if variation within the group was relatively large) tumor volume of the treated group and of the control group. TGD was calculated as the extra days for the treated tumor to reach 500 mm3 or 1000 mm3 as compared to the control group. Animals were culled when individual tumor size reached over 2000 mm3 or mean tumor volume exceeded 1000 mm3 in the group. Data are expressed as the mean±SEM. One-way analysis of variance with Dunnett post comparison test (GraphPad Prism 4) or two-tailed student's t-test were used for analysis. A P level <0.05 was considered statistically significant.
his study employed an A375 melanoma human tumor xenograft model and various compounds provided herein were compared to thiotepa and the approved anti melanoma drug, nab-Paclitaxel.

[3] = Example 4-C body weight change, A375 xenograft study; type: in vivo, female nude mice (nu/nu); conditions: qd × 5 × 2, ip
Method: as §3
his study employed an A375 melanoma human tumor xenograft model and various compounds provided herein were compared to thiotepa and the approved anti melanoma drug, nab-Paclitaxel. The antitumor effects and the safety of administration are graphically illustrated below.

[4] = Pharmacokinetics in CD-1 mice following a single intraperitoneal dose (parent and TH2660); conditions: mouse, in vivo, ip, parent compound
Method: The pharmacokinetics of TH2873, TH2883, TH2888, TH2890, TH2901 and TH2926 were determined in CD-1 mice following a single intraperitoneal dose.
The pharmacokinetics of TH2660, the active metabolite, following a single intraperitoneal dose of TH2873, TH2883, TH2888, TH2890, TH2901 and TH2926 are shown below.

[5] = test system: A 549 non-small cell lung xenograft; assay: Example 4-B antitumor efficacy, ectopic A549 NSCLC xenograft model; type: in vivo, female nude mice (nu/nu)
From the text: as §1, §2, §3
The dosing was as follows. Daily IP dosing: 5 doses then 2 days off then 5 more doses starting at 110 mm^3 tumors on day 1 (10 animals per group average tumor volume).
Doses were selected by first doing a toxicity test in CD1 mice as described above. The compounds were tested against Thio-tepa.

[6] = Example 4-B body weight change, A549 xenograft study; type: in vivo, female nude mice (nu/nu)
Method: as §3
Antitumor effects of compounds provided herein were determined on A 549 non-small cell lung xenograft model in comparison with a chemotherapy agent, thiotepa. The dosing was as follows. Daily IP dosing: 5 doses then 2 days off then 5 more doses starting at 110 mm^3 tumors on day 1 (10 animals per group average tumor volume). The antitumor effects and the safety of administration are graphically illustrated below.

COc1ccc(Oc2cc(C(C)OP(=O)(N3CC3)N3CC3)ccc2[N+](=O)[O-])cc1 (stereo not shown) [Compound 2873]
IC50 [1]: 5 nM | TGD 500 ([2]; 40 mpk): 12 days | TGD 1000 ([2]; 40 mpk): 11 days | inhibition in vivo at 40 mg/kg ([2]; Mus musculus, A-375, 40 mpk, read-out: TGI): 65% | Max. BW loss % ([3]; 40 mpk): 0% | AUC [4]: 2100 ng·h/mL | Cmax [4]: 8430 ng/mL | Tmax [4]: 5 min | half-life [4]: 8.81 min

Cc1ccc(Oc2cc(COP(=O)(N3CC3)N3CC3)ccc2[N+](=O)[O-])cn1 [Compound 2890]
IC50 [1]: 6 nM | TGD 500 ([2]; 10 mpk): 10 days | TGD 1000 ([2]; 10 mpk): 10 days | inhibition in vivo at 10 mg/kg ([2]; Mus musculus, read-out: TGI): 58.4% | Max. BW loss % ([3]; 10 mpk): 6.3% | AUC [4]: 613 ng·h/mL | Cmax [4]: 2730 ng/mL | Tmax [4]: 5 min | half-life [4]: 5.49 min

CC(OP(=O)(N1CC1)N1CC1)c1ccc([N+](=O)[O-])c(Oc2cccnc2)c1 (stereo not shown) [Compound 2852]
IC50 [1]: 20 nM | TGD 500 ([5]; 10 mg/kg ip QD × 5/wk × 2 wks): >72 days | TGI ([5]; 10 mg/kg ip QD × 5/wk × 2 wks): 95.1% | Max. BW loss % ([6]; 10 mg/kg ip QD × 5/wk × 2 wks): 0.0% | TGD 500 ([2]; 10 mpk): 3 days | TGD 1000 ([2]; 10 mpk): 1 days | inhibition in vivo at 10 mg/kg ([2]; Mus musculus, read-out: TGI): 12.4% | Max. BW loss % ([3]; 10 mpk): 2.6%

O=[N+]([O-])c1ccc(COP(=O)(N2CC2)N2CC2)cc1Oc1ccccc1 [Compound 2850]
IC50 [1]: 20 nM | TGD 500 ([5]; 10 mg/kg ip QD × 5/wk × 2 wks): 70 days | TGI ([5]; 10 mg/kg ip QD × 5/wk × 2 wks): 94.3% | TGD 500 ([5]; 20 mg/kg ip QD × 5/wk × 2 wks): >72 days | TGI ([5]; 20 mg/kg ip QD × 5/wk × 2 wks): 88.1% | Max. BW loss % ([6]; 10 mg/kg ip QD × 5/wk × 2 wks): 0.9% | Max. BW loss % ([6]; 20 mg/kg ip QD × 5/wk × 2 wks): 7.4% | TGD 500 ([2]; 10 mpk): -2 days | TGD 1000 ([2]; 10 mpk): 0 days | inhibition in vivo at 10 mg/kg ([2]; Mus musculus, read-out: TGI): 2.7% | Max. BW loss % ([3]; 10 mpk): 2.8%
